Experimental data as given in patent US7759345B2, “Antitumoral derivatives of ET-743” (priority 2001, dated 2010).
Read-outs that look alike come from different tables or passages of the source.

What was measured:
MEL-28 = assay: Inhibition of cell growth by counting cells, MEL-28; assay type: cell-based, human; conditions: Homo sapiens, SK-MEL-28, 72 h, read-out: IC50 (molar) MEL-28
Procedure: (§1) 1°.—Inhibition of Cell Growth by Counting Cells.
(§2) This form of the assay employs 24 well multidishes of 16 mm diameter (Bergeron, 1984; Schroeder, 1981). The tumor cell lines employed are: P-388 (ATCC CCL 46), suspension culture of a lymphoid neoplasm from a DBA/2 mouse; A-549 (ATCC CCL 185), monolayer culture of a human lung carcinoma; HT-29 (ATCC HTB-38), monolayer culture of a human colon carcinoma; MEL-28 (ATCC HTB-72), monolayer culture of a human melanoma and DU-145 (ATCC HTB-81), monolayer culture of a human prostate carcinoma.
(§3) Cells were maintained, in logarithmic phase of growth in Eagle's Minimum Essential Medium, with Earle's Balanced Salts, with non-essential amino acids, with 2.0 mM L-Glutamine, without sodium bicarbonate (EMEM/neaa), supplemented with 10% Fetal Calf Serum (FCS), 10^−2 M. sodium bicarbonate and 0.1 U/l penicillin G+0.1 g/l streptomycin sulfate. For the experiments, cells are harvested from subconfluent cultures using trypsin and resuspended in fresh medium before plating.
(§4) A-549, HT-29, MEL-28 and DU-145 cells were seeded into 16 mm diameter wells at 1×10^4 cells per well in 1 ml aliquots of EMEM 5% FCS containing different concentrations of the sample to be tested. A separate set of cultures without drug was seeded as control of growth, to ensure that cells remained in exponential phase of growth. All determinations are carrying out in duplicate. After three days of incubation at 37° C., 5% CO2 in a 98% humid atmosphere cells were stained with 0.1% crystal violet. An approximately IC50 was determined by comparing the growth in wells with drug to the growth in wells control.
(§5) For quantifying the activity, after the incubation time, cells are trypsinized and counted in a Coulter Counter ZM. All counts (net cells per well), represent the average of duplicate wells. % G, percent of growth relative to cultures without drug. The results of these assays are used to generate dose-response curves from which more precise IC50 values are determined (sample concentration which produces 50% cell growth inhibition).
(§6) Obtained results may predict the usefulness of a certain drug as a potential cancer treatment. For this technique, compounds which show IC50 values smaller than 1 μg/ml are selected to continue with further studies. IC50's data allow to predict that not only could a drug be cystostatic, but also it could have a potential in terms of tumor reduction.

A-549 = assay: Inhibition of cell growth by counting cells, A-549; assay type: cell-based, human; conditions: Homo sapiens, A549, 72 h, read-out: IC50 (molar) A-549
Procedure: as §1, §2, §3, §4, §5, §6

HT-29 = assay: Inhibition of cell growth by counting cells, HT-29; assay type: cell-based, human; conditions: Homo sapiens, HT-29, 72 h, read-out: IC50 (molar) HT-29
Procedure: as §1, §2, §3, §4, §5, §6

P-388 = assay: Inhibition of cell growth by counting cells, P-388; assay type: cell-based, mouse; conditions: Mus musculus, P388, 72 h, read-out: IC50 (molar) P-388
Procedure: as §1, §2, §3
P-388 cells were seeded into 16 mm diameter wells at 1×10^4 cells per well in 1 ml aliquots of EMEM 5% FCS containing different concentrations of the sample to be tested. A separate set of cultures without drug was seeded as control of growth, to ensure that cells remained in exponential phase of growth. All determinations are carrying out in duplicate.
as §5, §6

Structure (SMILES) | IC50 (MEL-28; three days of incubation) [nM] | IC50 (A-549; three days of incubation) [nM] | IC50 (HT-29; three days of incubation) [nM] | IC50 (P-388; three days of incubation) [nM] | IC50 (MEL-28) [nM] | IC50 (A-549) [nM] | IC50 (HT-29) [nM] | IC50 (P-388) [nM]
COc1cc2c(cc1OC(C)=O)CCN[C@]21CS[C@@H]2c3c(OC(C)=O)c(C)c4c(c3[C@H](COC1=O)N1C2[C@H]2c3c(cc(C)c(OC)c3OC(C)=O)C[C@@H]([C@@H]1C#N)N2C)OCO4 (stereo partly shown) [Compound 6] | 2.93 | 2.93 | 2.93 | 1.41 | – | – | – | –
CCCOc1cc2c(cc1OC)[C@@]1(CS[C@@H]3c4c(OC(C)=O)c(C)c5c(c4[C@H](COC1=O)N1C3[C@H]3c4c(cc(C)c(OC)c4O)C[C@@H]([C@@H]1C#N)N3C)OCO5)NCC2 (stereo partly shown) [Compound 39] | 0.616 | 0.616 | 0.616 | 0.616 | – | – | – | –
COc1cc2c(cc1OC(=O)OC(C)(C)C)CCN[C@]21CS[C@@H]2c3c(OC(C)=O)c(C)c4c(c3[C@H](COC1=O)N1C2[C@@H]2N[C@@H](Cc3cc(C)c(OC)c(O)c32)[C@@H]1C#N)OCO4 (stereo partly shown) [Compound 189] | 0.583 | 0.583 | 0.583 | 0.583 | – | – | – | –
COc1cc2c(cc1O)CCN(C)[C@]21CS[C@@H]2c3c(OC(C)=O)c(C)c4c(c3[C@H](COC1=O)N1C2[C@H]2c3c(cc(C)c(OC)c3O)C[C@@H]([C@@H]1C#N)N2C)OCO4 (stereo partly shown) [Compound 54] | 0.128 | 0.128 | 0.128 | 0.128 | – | – | – | –
C=CCOc1c(OC)c(C)cc2c1[C@H]1N[C@@H](C2)[C@H](C#N)N2C1[C@@H]1SC[C@]3(NCCc4cc(O)c(OC)cc43)C(=O)OC[C@H]2c2c3c(c(C)c(OC(C)=O)c21)OCO3 (stereo partly shown) [Compound 201] | 15.7 | 15.7 | 15.7 | 12.6 | – | – | – | –
COc1cc2c(cc1OC(=O)OC(C)(C)C)CCN[C@]21CS[C@@H]2c3c(OC(C)=O)c(C)c4c(c3[C@H](COC1=O)N1C2[C@H]2c3c(cc(C)c(OC)c3O)C[C@@H]([C@@H]1C#N)N2C(=O)OC(C)(C)C)OCO4 (stereo partly shown) [Compound 190] | 5.22 | 5.22 | 5.22 | 5.22 | – | – | – | –
COc1cc2c(cc1O)CCN(C)[C@]21CS[C@@H]2c3c(OC(C)=O)c(C)c4c(c3[C@H](COC1=O)N1C[C@@H]3Cc5cc(C)c(OC)c(O)c5[C@H](C21)N3C)OCO4 (stereo partly shown) [Compound 185] | 13.2 | 13.2 | 13.2 | 13.2 | – | – | – | –
COc1cc2c(cc1O)CCN[C@]21CS[C@@H]2c3c(OC(C)=O)c(C)c4c(c3[C@H](COC1=O)N1C2[C@H]2c3c(cc(C)c(OC)c3OC(C)=O)C[C@@H]([C@@H]1O)N2C)OCO4 (stereo partly shown) [Compound 96] | 1.25 | 1.25 | 1.25 | 1.25 | – | – | – | –
C=CCOC(=O)Oc1cc2c(cc1OC)[C@@]1(CS[C@@H]3c4c(OC(C)=O)c(C)c5c(c4[C@H](COC1=O)N1C3[C@H]3c4c(cc(C)c(OC)c4O)C[C@@H]([C@@H]1C#N)N3C(=O)OCC=C)OCO5)NCC2 (stereo partly shown) [Compound 187] | 1.08 | 1.08 | 1.08 | 1.08 | – | – | – | –
C=CCOC(=O)Oc1cc2c(cc1OC)[C@@]1(CS[C@@H]3c4c(OC(C)=O)c(C)c5c(c4[C@H](COC1=O)N1C3[C@H]3c4c(cc(C)c(OC)c4OC(=O)OCC=C)C[C@@H]([C@@H]1C#N)N3C)OCO5)NCC2 (stereo partly shown) [Compound 26] | 5.33 | 5.33 | 5.33 | 5.33 | – | – | – | –
COc1cc2c(cc1O)CCN[C@]21CS[C@@H]2c3c(O)c(C)c4c(c3[C@H](COC1=O)N1C2[C@@H]2N[C@@H](Cc3cc(C)c(OC)c(O)c32)[C@@H]1C#N)OCO4 (stereo partly shown) [Compound 184] | 0.699 | 0.699 | 0.699 | 0.699 | – | – | – | –
COc1cc2c(cc1OP(=O)(OCc1ccccc1)OCc1ccccc1)CCN[C@]21CS[C@@H]2c3c(OC(C)=O)c(C)c4c(c3[C@H](COC1=O)N1C2[C@H]2c3c(cc(C)c(OC)c3O)C[C@@H]([C@@H]1C#N)N2C)OCO4 (stereo partly shown) [Compound 53] | – | – | – | – | 9.71 | 9.71 | 9.71 | 4.85
CCCN1CCc2cc(O)c(OC)cc2[C@@]12CS[C@@H]1c3c(OC(C)=O)c(C)c4c(c3[C@H](COC2=O)N2C1[C@H]1c3c(cc(C)c(OC)c3O)C[C@@H]([C@@H]2C#N)N1C)OCO4 (stereo partly shown) [Compound 56] | 0.123 | 0.123 | 0.123 | 0.123 | – | – | – | –
COc1cc2c(cc1OC(C)=O)CCN[C@]21CS[C@@H]2c3c(OC(C)=O)c(C)c4c(c3[C@H](COC1=O)N1C2[C@H]2c3c(cc(C)c(OC)c3OC(C)=O)C[C@@H]([C@@H]1O)N2C)OCO4 (stereo partly shown) [Compound 80] | 5.92 | 5.92 | 5.92 | 2.96 | – | – | – | –
CCOc1cc2c(cc1OC)[C@@]1(CS[C@@H]3c4c(OC(C)=O)c(C)c5c(c4[C@H](COC1=O)N1C3[C@H]3c4c(cc(C)c(OC)c4O)C[C@@H]([C@@H]1C#N)N3C)OCO5)NCC2 (stereo partly shown) [Compound 37] | 0.125 | 0.125 | 0.125 | 0.125 | – | – | – | –
COc1cc2c(cc1O)CCN[C@]21CS[C@@H]2c3c(OC(C)=O)c(C)c4c(c3[C@H](COC1=O)N1C2[C@H]2c3c(cc(C)c(OC)c3OC(C)=O)C[C@@H]([C@@H]1C#N)N2C)OCO4 (stereo partly shown) [Compound 51] | 1.23 | 1.23 | 1.23 | 0.616 | – | – | – | –
COC1=C(C)C(=O)C2=C(C1=O)[C@@H]1C3[C@@H]4SC[C@]5(NCCc6cc(O)c(OC)cc65)C(=O)OC[C@@H](c5c6c(c(C)c(OC(C)=O)c54)OCO6)N3[C@@H](C#N)[C@H](C2)N1C (stereo partly shown) [Compound 52] | – | 1.27 | 1.27 | – | – | – | – | –
COc1cc2c(cc1OC(=O)OC(C)(C)C)CCN[C@]21CS[C@@H]2c3c(OC(=O)OC(C)(C)C)c(C)c4c(c3[C@H](COC1=O)N1C2[C@H]2c3c(cc(C)c(OC)c3O)C[C@@H]([C@@H]1C#N)N2C)OCO4 (stereo partly shown) [Compound 108] | – | 0.108 | 0.108 | – | – | – | – | –
CCOc1c(C)c2c(c3c1[C@H]1SC[C@]4(NCCc5cc(OC(=O)OC(C)(C)C)c(OC)cc54)C(=O)OC[C@@H]3N3C1[C@H]1c4c(cc(C)c(OC)c4O)C[C@@H]([C@@H]3C#N)N1C)OCO2 (stereo partly shown) [Compound 128] | – | 1.17 | 1.17 | – | – | – | – | –
C=CCOc1c(C)c2c(c3c1[C@H]1SC[C@]4(NCCc5cc(OC(=O)OC(C)(C)C)c(OC)cc54)C(=O)OC[C@@H]3N3C1[C@H]1c4c(cc(C)c(OC)c4OCC=C)C[C@@H]([C@@H]3C#N)N1C)OCO2 (stereo partly shown) [Compound 133] | – | 110 | 110 | – | – | – | – | –
COc1cc2c(cc1O)CCN[C@]21CS[C@@H]2c3c(OC)c(C)c4c(c3[C@H](COC1=O)N1C2[C@H]2c3c(cc(C)c(OC)c3O)C[C@@H]([C@@H]1C#N)N2C)OCO4 (stereo partly shown) [Compound 149] | – | 0.135 | 0.135 | – | – | – | – | –
CCOc1c(C)c2c(c3c1[C@H]1SC[C@]4(NCCc5cc(OC(=O)OC(C)(C)C)c(OC)cc54)C(=O)OC[C@@H]3N3C1[C@H]1c4c(cc(C)c(OC)c4OCC)C[C@@H]([C@@H]3C#N)N1C)OCO2 (stereo partly shown) [Compound 129] | – | 11.3 | 11.3 | – | – | – | – | –
COc1cc2c(cc1O)CCN[C@]21CS[C@@H]2c3c(OC(=O)CCCl)c(C)c4c(c3[C@H](COC1=O)N1C2[C@H]2c3c(cc(C)c(OC)c3O)C[C@@H]([C@@H]1C#N)N2C)OCO4 (stereo partly shown) [Compound 142] | – | 1.22 | 1.22 | – | – | – | – | –
C=CCOc1c(C)c2c(c3c1[C@H]1SC[C@]4(NCCc5cc(O)c(OC)cc54)C(=O)OC[C@@H]3N3C1[C@H]1c4c(cc(C)c(OC)c4O)C[C@@H]([C@@H]3C#N)N1C)OCO2 (stereo partly shown) [Compound 155] | – | 1.3 | 1.3 | – | – | – | – | –
C=CCOc1c(C)c2c(c3c1[C@H]1SC[C@]4(NCCc5cc(OC(=O)OC(C)(C)C)c(OC)cc54)C(=O)OC[C@@H]3N3C1[C@H]1c4c(cc(C)c(OC)c4O)C[C@@H]([C@@H]3C#N)N1C)OCO2 (stereo partly shown) [Compound 132] | – | 1.15 | 1.15 | – | – | – | – | –
